Results from US12441732B2, “Potassium salt crystal form B of phosphodiesterase type 5 inhibitor, and preparation method and use therefor” (Guangzhou Huazhen Pharmaceutical Co., Ltd, priority 2019, dated 2025).
In brackets after ≈: the same amount, converted by molar mass. Read-outs that look alike come from different tables or passages of the source.

How the values were obtained:
IPF rats = assay: Bleomycin-induced idiopathic pulmonary fibrosis (IPF) rats; format: in vivo, SD rats; settings: 23 days
Protocol: The animals were purchased, and modeling was started after 3-7 days of acclimatization. The animals were weighed and anesthetized by inhalation with isoflurane. After the animals were confirmed to be anesthetized, the neck was disinfected, and the skin of the neck was cut. The main trachea was exposed by bluntly dissecting the muscle, a small incision was made between the tracheal rings, into which a PE-20 tube was inserted until the left main bronchus, and bleomycin was injected directly (dose: 3 mg/kg, volume: 1.0 ml/kg). The trachea and skin were sutured. After the surgery, the animals were kept warm at 37° C. under an electric blanket until the animals were fully awake and confirmed to be able to feed and drink freely before returning the animals to their normal feeding cages.
50 mg/kg Nintedanib group (BIBF-50 mg/kg): BIBF was prepared into a solution of 10 mg/ml with 0.5% sodium carboxymethyl cellulose and administered by gavage at a dose of 50 mg/kg^−1·d^−1;
Each group of rats was administered by gavage on the day of modeling, once a day for 23 days in total.
After 23 days of continuous administration, all animals in each group were euthanized by intraperitoneal injection of pentobarbital sodium anesthetic (100 mg/kg) in accordance with the KCl standard operating procedure for animal euthanasia. Whole-body perfusion was performed by low-temperature PBS, and then fixation was performed by whole-body formalin perfusion. The left lung was taken and perfused with an equal amount of formalin fluid for weighing and subsequent lung pathology-related tests.
Left lung gross pathological examination: after perfusion with an equal amount of formalin, the wet weight of the left lung after the perfusion was weighed and recorded with a microbalance; the volume of the left lung after perfusion was measured and recorded using a toe volume measuring instrument.
The whole lung of the left lung was dehydrated according to the KCl pathology standard SOPs, and paraffin blocks were prepared. The whole lung of the left lung was paraffin-sectioned at a thickness of 3-4 μm. HE staining and Masson Trichrome staining were performed according to the KCl pathology standard staining SOPs, and the slice panoramic scanning was carried out by a Hamamatsu NanoZoomer Digital Pathology (S210) slice scanner. The lung lesion area was calculated by Masson Trichrome staining of the sections, and the left lung fibrosis area (%) was the percentage of fibrosis area in the left lung area; 10 randomly selected fields of view of 1 mm^2 in the lesion area were semi-quantitatively scored by the pathologist under double-blind conditions according to the Ashcroft scoring system (as shown in Table 8 and FIG. 40).

PDE5 = PDE5 (Homo sapiens, UniProt O76074); settings: background statement; cited from earlier work
[1] = background statement; cited from earlier work
PAH rats [2] = assay: Penile erectile function observation in PAH rats; format: in vivo, SD rats
Protocol: After gavage treatment, penile erection in the animals was observed, wherein the time of penile erection phenomenon after gavage was recorded in each group.

PAH rats [3] = assay: Monocrotaline-induced pulmonary arterial hypertension (PAH) rats: RVSP, RVMI, pulmonary arterioles; format: in vivo, SD rats; settings: for RVMI, RV/(LV+S) / RVSP: 3 weeks after MCT
Excerpt: SD rats were randomly divided into 8 groups, 15 rats/group: a normal control group (Vehicle); a PAH model group (MCT); a PAH+potassium salt crystal form B of WYQ mini-dose group (hereafter referring to as a mini-dose group); a PAH+potassium salt crystal form B of WYQ low-dose group (hereafter referring to as a low-dose group); a PAH+potassium salt crystal form B of WYQ medium-dose group (hereafter referring to as a medium-dose group); a PAH+potassium salt crystal form B of WYQ high-dose group (hereafter referring to as a high-dose group); a PAH+Sildenafil control group (hereafter referring to as a Sildenafil group); a PAH+Tadalafil control group (hereafter referring to as a Tadalafil group).
MCT was fully dissolved with 1M dilute HCl, diluted with double-distilled water, and adjusted to pH=7.2 with 3M NaOH, thereby preparing a MCT solution with a final concentration of 20 mg/ml.
The normal control group was injected subperitoneally with normal saline (50 mg/kg), and the rest of the groups were injected subperitoneally with MCT (50 mg/kg) at one time.
Mini-dose group: the potassium salt crystal form B of WYQ was prepared into a 0.4 mg/ml medicinal solution (ready to use) with normal saline, and administered by gavage at the dose of 2 mg·kg^−1d^−1;
Low-dose group: the potassium salt crystal form B of WYQ was prepared into a 1 mg/ml medicinal solution (ready to use) with normal saline, and administered by gavage at the dose of 5 mg·kg^−1d^−1;
Medium-dose group: the potassium salt crystal form B of WYQ was prepared into a 2 mg/ml medicinal solution (ready to use) with normal saline, and administered by gavage at the dose of 10 mg·kg^−1d^−1;
High-dose group: the potassium salt crystal form B of WYQ was prepared into a 4 mg/ml medicinal solution (ready to use) with normal saline, and administered by gavage at the dose of 20 mg·kg^−1d^−1;
Sildenafil group: Sildenafil was prepared into a 5 mg/ml medicinal solution (ready to use) with 0.5% sodium carboxymethyl cellulose, and administered by gavage at the dose of 25 mg·kg^−1d^−1;
Tadalafil group: Tadalafil was prepared into a 2 mg/ml medicinal solution (ready to use) with 0.5% sodium carboxymethyl cellulose, and administered by gavage at the dose of 10 mg·kg^−1d^−1.
The day of injection was the starting date of the experiment, and the administration was started after 7 days of modeling, once a day for 14 consecutive days.
After 3 weeks from the starting date of the experiment, RVSP data were collected on RM-6240E polygraph for each group of rats.
After 3 weeks from the starting date of the experiment, the animals were anesthetized, hemodynamically tested (RM-6240E polygraph), and sacrificed after manometry. The cardiopulmonary tissues were immediately dissected, and the right and left atria and great vessels were cut off along the atrioventricular junction with ophthalmic scissors to separate the right ventricle (RV) and left ventricular wall plus septum (LV+S), which was absorbed water with filter paper and weighed respectively, and RV/(LV+S), i.e., RVMI was calculated.
After 3 weeks from the starting date of the experiment, rats were heparinized with heparin (50 IU/100 g, intraperitoneal injection) for 5 min. The animals were anesthetized by injection of 20% urethane solution (0.5 ml/100 g), and the blood pressure indexes were detected and recorded.
The heart was dissected, the right ventricular wall was separated, and the left ventricle and the septum were separated, which were absorbed water with filter paper and weighed respectively to calculate the right ventricular hypertrophy index.
The lungs were dissected, wherein the right lung was ligated, and the left lung lobe was perfused with a fixative (4% paraformaldehyde) and then fixed in the fixative, dehydrated by ethanol gradient, allowed to become transparent by using xylene, immersed in wax, embedded in paraffin, sectioned (4 μm), stained with hematoxylin-eosin (HE), sealed with neutral gum and then observed under a microscope. […]

[4] = Dynamic solubility test in water, SGF, FaSSIF, FeSSIF at 37° C.; format: physicochemical; settings: for solubility at 1 h / solubility at 4 h / solubility at 24 h: thermodynamic from solid, read-out: solubility (S)
[5] = Solid-state stability test (one week, open); format: physicochemical; settings: for HPLC purity: Purity after placement / Purity after placement/Starting purity / Crystal form change: open; for Crystal form change: XRPD
Protocol: The solid-state stability of the potassium salt crystal form B prepared in Embodiment 1 was tested, in which 5.22 mg of potassium salt crystal form B samples were weighed and left open at 25° C./60% RH, and 5.19 mg of potassium salt crystal form B samples were weighed and left open at 40° C./75% RH. After one week, all samples were subjected to XRPD characterization (see XRPD parameter settings in Table 1) and HPLC purity test (Agilent 1100) to detect changes in crystal form and purity, wherein HPLC purity test parameters were shown in Table 6. Meanwhile, 4.59 mg of a compound WYQ sample was weighed and left open at 25° C./60% RH, and 5.11 mg of the compound WYQ sample was weighed and left open at 40° C./75% RH. The solid-state stability of these samples were performed under the same conditions for comparative reference.

[6] = Sildenafil group 25 mg·kg^−1d^−1
[7] = Sildenafil group 25 mg·kg^−1d^−1 gavage once a day for 14 days
[8] = Tadalafil group 10 mg·kg^−1d^−1 gavage once a day for 14 days

SMILES: COC(=O)c1ccc2c(c1)NC(=O)/C2=C(\Nc1ccc(N(C)C(=O)CN2CCN(C)CC2)cc1)c1ccccc1 [BIBF, Nintedanib, reference compound]
- Left lung volume (IPF rats; 50 mg/kg gavage once a day): 1736.9 ± 136.10 mm^3
- Left lung weight (IPF rats; 50 mg/kg gavage once a day): 1.58 ± 0.12 g
- alveolar tissue structure in left lung pulmonary fibrosis lesions (HE staining) (IPF rats; 50 mg/kg): some of the alveolar structures in the fibrotic lesions were still damaged
- alveolar tissue structure in left lung pulmonary fibrosis lesions (Masson Trichrom staining) (IPF rats; 50 mg/kg): some of the alveolar structures in the fibrotic lesions disappeared
- left lung pulmonary fibrosis lesions and lesion range vs the model group (IPF rats; different doses, H&E and Masson Trichrom staining): no significant difference
- Fibrosis area (IPF rats; left lung, 50 mg/kg): 56.91 ± 4.19%
- Percentage of score (%) (≤3) (IPF rats; left lung, 50 mg/kg): 78.75 ± 4.79 %

SMILES: CCCc1nn(C)c2c(=O)[nH]c(-c3cc(S(=O)(=O)N4CCN(C)CC4)ccc3OCC)nc12 [Sildenafil, reference compound]
- selective effect on PDE5 relative to PDE6 (PDE5): 10 times
- bioavailability [1]: about 41%
- rats showing penile erection (PAH rats [2]; Sildenafil group 25 mg·kg^−1d^−1, over 30 minutes after gavage): 80%
- WT % of pulmonary arterioles vs PAH model group (PAH rats [3]; [6]): not statistically significant
- tunica media thickness of pulmonary arterioles vs PAH model group (PAH rats [3]; [6]): decrease
- RVMI, RV/(LV+S) (PAH rats [3]; [7]): 48.4±1.0%
- RVSP (PAH rats [3]; [7]): 60.4±5.0 mmHg

SMILES: CN1CC(=O)N2[C@H](c3ccc4c(c3)OCO4)c3[nH]c4ccccc4c3C[C@@H]2C1=O [Tadalafil, reference compound]
- biological half-life [1]: approximately 17.5 hours
- rats showing penile erection (PAH rats [2]; Tadalafil group 10 mg·kg^−1d^−1, over 30 minutes after gavage): 80%
- RVMI, RV/(LV+S) (PAH rats [3]; [8]): 41.8±1.9%
- RVSP (PAH rats [3]; [8]): 52.5±2.4 mmHg

SMILES: CCCCOC(=O)NS(=O)(=O)c1cccc(-c2nc3c(CCC)nn(C)c3c(=O)[nH]2)c1 [compound WYQ, 5-(2-H-5 (N-butoxycarbonylaminosulfonyl)phenyl)-1-methyl-3-propyl-1,6-dihydro-7H-pyrazolo [4,3-d]pyrimidin-7-one]
- crystal form change after XRPD assay (FC) ([4]; FaSSIF, 1 h): yes
- pH ([4]; FaSSIF, 1 h): 6.5
- crystal form change after XRPD assay (FC) ([4]; FaSSIF, 4 h): yes
- pH ([4]; FaSSIF, 4 h): 6.5
- crystal form change after XRPD assay (FC) ([4]; FaSSIF, 24 h): yes
- pH ([4]; FaSSIF, 24 h): 6.6
- crystal form change after XRPD assay (FC) ([4]; FeSSIF, 1 h): yes
- pH ([4]; FeSSIF, 1 h): 5.0
- crystal form change after XRPD assay (FC) ([4]; FeSSIF, 4 h): yes
- pH ([4]; FeSSIF, 4 h): 5.0
- crystal form change after XRPD assay (FC) ([4]; FeSSIF, 24 h): yes
- pH ([4]; FeSSIF, 24 h): 5.0
- crystal form change after XRPD assay (FC) ([4]; SGF, 1 h): yes
- pH ([4]; SGF, 1 h): 2.4
- crystal form change after XRPD assay (FC) ([4]; SGF, 4 h): yes
- pH ([4]; SGF, 4 h): 2.5
- crystal form change after XRPD assay (FC) ([4]; SGF, 24 h): yes
- pH ([4]; SGF, 24 h): 2.4
- solubility at 1 h ([4]; fasted-state simulated intestinal fluid (FaSSIF), FaSSIF, 1 h): 1900 µg/mL (≈ 4250 µM)
- solubility at 4 h ([4]; fasted-state simulated intestinal fluid (FaSSIF), FaSSIF, 4 h): 1900 µg/mL (≈ 4250 µM)
- solubility at 24 h ([4]; fasted-state simulated intestinal fluid (FaSSIF), FaSSIF, 24 h): 2000 µg/mL (≈ 4470 µM)
- solubility at 1 h ([4]; fed-state simulated intestinal fluid (FeSSIF), FeSSIF, 1 h): 160 µg/mL (≈ 358 µM)
- solubility at 4 h ([4]; fed-state simulated intestinal fluid (FeSSIF), FeSSIF, 4 h): 160 µg/mL (≈ 358 µM)
- solubility at 24 h ([4]; fed-state simulated intestinal fluid (FeSSIF), FeSSIF, 24 h): 160 µg/mL (≈ 358 µM)
- solubility at 1 h ([4]; simulated gastric fluid (SGF), simulated gastric fluid, SGF, 1 h): 5.6 µg/mL (≈ 12.5 µM)
- solubility at 4 h ([4]; simulated gastric fluid (SGF), simulated gastric fluid, SGF, 4 h): 6 µg/mL (≈ 13.4 µM)
- solubility at 24 h ([4]; simulated gastric fluid (SGF), simulated gastric fluid, SGF, 24 h): 6.9 µg/mL (≈ 15.4 µM)
- solubility at 1 h ([4]; water, 1 h): 2200 µg/mL (≈ 4920 µM)
- solubility at 4 h ([4]; water, 4 h): 1800 µg/mL (≈ 4020 µM)
- solubility at 24 h ([4]; water, 24 h): 2200 µg/mL (≈ 4920 µM)
- crystal form change after XRPD assay (FC) ([4]; water, 1 h): yes
- pH ([4]; water, 1 h): 7.7
- crystal form change after XRPD assay (FC) ([4]; water, 4 h): yes
- pH ([4]; water, 4 h): 7.9
- crystal form change after XRPD assay (FC) ([4]; water, 24 h): yes
- pH ([4]; water, 24 h): 7.6
- decrease in purity after one week of placement ([5]; 25° C./60% RH): No significant decrease
- HPLC purity: Purity after placement ([5]; 25° C./60% RH, one week): 97.17 area %
- Purity after placement/Starting purity ([5]; 25° C./60% RH, one week): 99.8%
- Crystal form change ([5]; 25° C./60% RH, one week): unchanged
- decrease in HPLC purity (area %) ([5]; 40° C./75% RH, one week): about 1%
- HPLC purity: Purity after placement ([5]; 40° C./75% RH, one week): 96.30 area %
- Purity after placement/Starting purity ([5]; 40° C./75% RH, one week): 98.9%
- Crystal form change ([5]; 40° C./75% RH, one week): changed
